In patent US20020052343A1, “Salicylamides as serine protease inhibitors” (priority 1999, published 2002):

Columns and labels:
[1] = molecular target: T1, human Factor Xa (Homo sapiens, UniProt P00742); assay: Factor Xa inhibition, chromogenic substrate hydrolysis, Ki app.; format: biochemical; conditions: 2-3 nM human Factor Xa, substrate 1 mM, 50 mM Tris pH 7.5, absorbance at 405 nm, read-out: FXa Ki
T1 construct: purchased Haematologic Technologies, Vt., USA
Method: Some of the compounds of the present invention show selectivity between uPA and FXa, with respect to their inhibitory properties. The effectiveness of compounds of the present invention as inhibitors of Urokinase and Factor Xa is determined by using synthetic substrates and purified Urokinase and purified human Factor Xa respectively.
The rates of hydrolysis by the chromogenic substrates were measured both in the absence and presence of compounds of the present invention. Hydrolysis of the substrates result in the release of a chromogenic moiety, which is monitored spectrophotometrically by measuring the increase in absorbance at 405 nano meter (nm). A decrease in the rate of absorbance change at 405 nm in the presence of a inhibitor is indicative of enzyme inhibition. The results of this assay are expressed as the inhibitory constant, Ki app. Factor Xa determinations were made in 50 mM Tris buffer, pH 7.5, containing 1 M NaCl, 5 mM CaCl2, 0.05% Tween-20, and 1.5 mM EDTA. Values of Ki app. were determined by allowing 2-3 nM human Factor Xa (Haematologic Technologies, Vt., USA) to react with the substrate (1 mM) in the presence of an inhibitor. Hydrolysis of the chromogenic substrate is followed spectrophotometrically at 405 nm for five minutes. The enzyme assay routinely yielded linear progression curves under these conditions. Initial velocity measurements calculated from the progress curves by a kinetic analysis program (Batch Ki; Peter Kuzmic, BioKin, Ltd., Madison, Wis.) were used to determine Ki app.

[2] = molecular target: T2, human Urokinase (Homo sapiens, UniProt P00749); assay: Urokinase (uPA) inhibition, chromogenic substrate hydrolysis, Ki app.; format: biochemical
T2 construct: purchased American Diagnostica, Conn., USA
Method: The effectiveness of compounds of the present invention as inhibitors of Urokinase and Factor Xa is determined by using synthetic substrates and purified Urokinase and purified human Factor Xa respectively.
The rates of hydrolysis by the chromogenic substrates were measured both in the absence and presence of compounds of the present invention. […] The results of this assay are expressed as the inhibitory constant, Ki app. Factor Xa determinations were made in 50 mM Tris buffer, pH 7.5, containing 1 M NaCl, 5 mM CaCl2, 0.05% Tween-20, and 1.5 mM EDTA. […] Initial velocity measurements calculated from the progress curves by a kinetic analysis program (Batch Ki; Peter Kuzmic, BioKin, Ltd., Madison, Wis.) were used to determine Ki app.
Urokinase inhibition determinations were made in 50 mM Tris (pH 7.5), 150 mM NaCl, 0.05% Tween-20, 0.002% antifoam, and 1 mM EDTA. human Urokinase (from American Diagnostica, Conn., USA). […] Initial velocity measurements calculated from the progress curves by a kinetic analysis program (Batch Ki; Peter Kuzmic, BioKin, Ltd., Madison, Wis.) were used to determine Ki app.

T1 sequence (P00742 235-488 limits assumed): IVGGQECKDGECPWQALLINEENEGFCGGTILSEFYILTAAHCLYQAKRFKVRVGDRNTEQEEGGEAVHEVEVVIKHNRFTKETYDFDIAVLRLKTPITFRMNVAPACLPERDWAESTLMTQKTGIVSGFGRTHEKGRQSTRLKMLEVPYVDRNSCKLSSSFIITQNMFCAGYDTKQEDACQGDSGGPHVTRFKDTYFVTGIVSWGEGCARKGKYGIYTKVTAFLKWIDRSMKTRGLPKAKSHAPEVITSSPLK
T1 sequence (P00742 41-179 partner limits assumed): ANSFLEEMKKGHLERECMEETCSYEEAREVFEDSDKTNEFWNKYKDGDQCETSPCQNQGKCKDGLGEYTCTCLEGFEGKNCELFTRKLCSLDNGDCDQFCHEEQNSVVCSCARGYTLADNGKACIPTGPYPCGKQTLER

Row | Ki [1] [nM] | SMILES | Ki [2] [nM]
1 | 880 | Cc1cc(I)c(O)c(C(=O)Nc2ccc(C(=N)N)cc2)c1 [Ex. 1, N-(4—Carbamimidoyl-phenyl)-2-hydroxy-3-iodo-5-methyl-benzamide] | –
2 | 34000 | CC(C)c1cc(C(=O)Nc2ccc(C(=N)N)cc2)c(O)c(C(C)C)c1 [compound 24] | 2900
3 | 290000 | Cc1cc(I)c(O)c(C(=O)Nc2ccc(NC(=N)N)nc2)c1 [Ex. 205] | 5500

Row | SMILES | Ki [1] [nM] | Ki [2] [nM]
4 | N=C(N)Nc1ccc(NC(=O)c2cc3ccccc3cc2O)cn1 [Ex. 201, 3-hydroxy-naphthalene-2-carboxylic acid (6-guanidino-pyridin-3-yl)-amide] | 130000 | 326
5 | Cc1cc(Br)c(O)c(C(=O)Nc2ccc(C(=N)N)cc2)c1 [Ex. 5] | 840 | 290
